{"source": "patent US20060252683A1", "about": "“Preparation of a peptide compound (SYRAPRO-2000) and its use for the activation of protein phosphatase-2A1 enzyme” (priority 2005, published 2006)", "biological_target": "protein phosphatase-2A1 (Homo sapiens, UniProt P67775)", "sequence (P67775 whole entry)": "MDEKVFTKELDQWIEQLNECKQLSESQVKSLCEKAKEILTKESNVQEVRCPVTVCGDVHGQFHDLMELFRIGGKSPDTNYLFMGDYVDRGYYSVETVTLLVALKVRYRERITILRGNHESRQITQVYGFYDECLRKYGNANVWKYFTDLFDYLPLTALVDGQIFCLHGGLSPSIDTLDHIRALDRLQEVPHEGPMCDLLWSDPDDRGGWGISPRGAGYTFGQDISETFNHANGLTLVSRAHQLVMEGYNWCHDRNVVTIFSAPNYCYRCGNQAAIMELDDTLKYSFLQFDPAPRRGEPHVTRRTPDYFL", "sequence (P30153 whole entry partner)": "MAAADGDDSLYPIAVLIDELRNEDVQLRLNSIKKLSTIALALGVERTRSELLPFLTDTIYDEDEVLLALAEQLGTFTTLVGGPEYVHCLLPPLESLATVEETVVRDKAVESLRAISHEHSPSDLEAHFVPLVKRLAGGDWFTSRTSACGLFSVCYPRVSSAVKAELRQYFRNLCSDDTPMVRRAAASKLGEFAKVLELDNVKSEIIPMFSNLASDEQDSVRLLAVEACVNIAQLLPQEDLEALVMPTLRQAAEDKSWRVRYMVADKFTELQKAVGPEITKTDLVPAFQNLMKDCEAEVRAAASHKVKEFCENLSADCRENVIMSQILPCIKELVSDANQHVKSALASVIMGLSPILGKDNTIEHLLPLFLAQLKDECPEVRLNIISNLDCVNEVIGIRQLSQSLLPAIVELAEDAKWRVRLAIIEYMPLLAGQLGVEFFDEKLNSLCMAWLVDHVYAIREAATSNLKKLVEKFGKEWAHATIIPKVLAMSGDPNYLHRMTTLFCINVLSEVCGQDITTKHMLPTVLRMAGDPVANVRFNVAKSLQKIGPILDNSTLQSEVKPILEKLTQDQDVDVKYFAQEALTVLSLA", "sequence (P63151 whole entry partner)": "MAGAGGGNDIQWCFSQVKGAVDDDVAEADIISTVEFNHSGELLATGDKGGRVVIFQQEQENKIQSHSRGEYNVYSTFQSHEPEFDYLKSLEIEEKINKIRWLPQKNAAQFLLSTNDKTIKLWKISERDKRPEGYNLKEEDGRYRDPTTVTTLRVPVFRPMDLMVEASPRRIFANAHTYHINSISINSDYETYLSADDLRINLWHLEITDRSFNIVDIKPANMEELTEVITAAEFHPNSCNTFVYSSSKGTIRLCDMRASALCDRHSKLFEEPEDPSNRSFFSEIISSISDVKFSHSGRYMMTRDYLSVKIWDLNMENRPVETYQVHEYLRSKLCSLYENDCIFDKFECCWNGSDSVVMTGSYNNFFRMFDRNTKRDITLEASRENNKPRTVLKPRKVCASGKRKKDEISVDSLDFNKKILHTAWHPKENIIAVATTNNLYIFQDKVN", "assay": "Assay of purified protein phosphatase-2A1 in vitro with 32P-labeled phosphorylase a as substrate", "format": "biochemical", "set-up": "Protein phosphatase-2A1 purified from CD^4+ T cells as described in materials and method; endogenous in cells; host or cells: Jurkat cells; enzyme purified by DEAE Sepharose, Sephacryl S-300 HR and poly-L-lysine Agarose", "conditions": "purified enzyme from Jurkat cells, in vitro", "description": "Protein phosphatase-2A1 purified from CD^4+ T cells as described in materials and method was assayed in the presence of various concentrations of SYRAPRO-2000. 100 percent protein phosphatase-2A1 activity is equivalent to 0.005 unit. Similar result were obtained in 3 independent experiments.\nThe effect of synthesized SYRAPRO-2000 on purified protein phosphatase-2A1 can be determined in vitro. Protein phosphatase-2A1 can be assayed using ^32P-labeled phosphorylase a as substrate in the presence of various concentrations of SYRAPRO-2000. Protein phosphatase-2A1 is activated in the presence of SYRAPRO-2000.\nProtein phosphatase-1 was assayed as described in (Cohen 1988). Protein phosphatase-2B was assayed as described in (Tung 1986). Protein phosphatase-2C was assayed as described in (Tung 1986) except Ca^2+ and calmodulin were omitted. The assay of protein phosphatases-2A1 consisted of 0.02 ml of enzyme solution in 50 mM Imidazole-Cl pH 7.2, 0.2 mM EGTA, 0.1% (v/v) 2-mercaptoethanol and 1 mg/ml bovine serum albumin (Assay Buffer), 0.01 ml of inhibitor-2 at 600 nM in Assay Buffer, 0.01 ml of protamine at 60 μg/ml in Assay Buffer or 0.01 ml of SYRAPRO-2000 at different concentrations in Assay Buffer or 0.01 ml of Assay Buffer alone, 0.02 ml of ^32P-labeled phosphorylase a at 3 mg/ml in Assay Buffer containing 15 mM caffeine. The assay components were preincubated for 10 minutes prior to initiating the reaction with ^32P-labeled phosphorylase a. One unit of protein phosphatase activity is that amount of enzyme which catalyzes the release of 1 nmol of phosphate from ^32P-labeled substrate per min at 30° C.\nJurkat cells, a human transformed CD^4+ T cell line, were grown in grown in RPMI 1680 supplemented with 5% (v/v) fetal bovine serum at 37° C. in 95% air/5% CO2 in a humidified incubator. 2.4 liters of cells were collected by centrifugation at 4200 rpm in a low speed centrifuge for 10 minutes. The cells were homogenized in 80 ml of 50 mM Imidazole-Cl pH 7.2, 2 mM EGTA, 2 mM EDTA, 0.1% (v/v) 2-mercaptoethanol, 0.2 mM PMSF, 1 mM benzamidine, 4 μg/ml aprotinin, 4 μg/ml leupeptin, 4 μg/ml pepstatin, 0.1 mM TLCK, 0.1 mM TPCK, 1 mM sodium orthovanadate and 10% (v/v) glycerol by 40 strokes in a glass hand held homogenizer. The homogenate was centrifuged at 29000 rpm in a high speed centrifuge for 30 minutes. The supernatant (i.e the extract) was collected and loaded onto a DEAE Sepharose column (1.5×6 cm) equilibrated in 25 mM Imidazole-Cl pH 7.2, 0.2 mM EGTA, 0.1% (v/v) 2-mercaptoethanol, 0.1 mM PMSF, 1 mM benzamidine and 10% (v/v) glycerol (Buffer A). The column was washed with 50 ml of Buffer and then eluted with a 200 ml linear gradient of Buffer A to Buffer A plus 0.4 M NaCl. The eluted fractions were then assayed for phosphorylase phosphatase activity in the presence of 100 nM inhibitor-2 and 10 μg/ml of protamine. Two major peaks of phosphorylase phosphatase were observed. The first and second peak represent protein phosphatase-2A0 and protein phosphatase-2A1 respectively. […] The major activity eluting as a species of apparent molecular mass 300 kDa was collected, diluted four fold in Buffer A and loaded onto a poly-L-lysine Agarose Column (1.5×4 cm) equilibrated in Buffer A. The column was washed with 50 ml of Buffer A and then eluted with a 200 ml linear gradient of Buffer A to Buffer A plus 0.5 M NaCl. The active fractions eluting at ˜0.30 M NaCl salt concentration was pooled, concentrated by vacuum dialysis and stored at ^−20° C. in 50 mM Imidazole-Cl pH 7.2, 0.2 mM EGTA in the presence of 50% (v/v) glycerol. The highly purified enzyme consisted of the characteristic subunits of protein phosphatase-2A1, namely the A, B and C subunits. […] It is difficult to determine the activity of protein phosphatase-2A1 in CD^4+ T cell extract. However, assuming that it represented about 66 percent of total type 2A protein phosphatase activity in CD^4+ T cell extract, the specific activity of the enzyme in extract was estimated to be 0.3 unit/mg. […]"}
{"smiles": "CC[C@H](C)[C@H](NC(=O)[C@H](CCCNC(=N)N)NC(=O)[C@H](CO)NC(=O)[C@H](Cc1c[nH]cn1)NC(=O)[C@H](CCCNC(=N)N)NC(=O)[C@H](CS)NC(=O)CNC(=O)[C@@H](NC(=O)[C@H](CCCNC(=N)N)NC(=O)[C@H](Cc1ccccc1)NC(=O)[C@@H](N)Cc1c[nH]cn1)[C@@H](C)CC)C(=O)NCC(=O)N[C@H](C(=O)N[C@H](C(=O)N[C@@H](CCCNC(=N)N)C(=O)N[C@@H](CCC(N)=O)C(=O)N[C@@H](CCCNC(=N)N)C(=O)N[C@@H](CCCNC(=N)N)C(=O)N[C@@H](C)C(=O)N[C@@H](CCCNC(=N)N)C(=O)N[C@@H](CC(N)=O)C(=O)NCC(=O)N[C@@H](C)C(=O)N[C@@H](CO)C(=O)N[C@@H](CCCNC(=N)N)C(=O)N[C@@H](CO)C(=O)O)[C@@H](C)O)C(C)C", "note": "[SYRAPRO-2000]", "values": [{"measurement": "activation of protein phosphatase-2A1", "result": 7, "unit": "fold"}, {"measurement": "concentration above which there was inhibition of protein phosphatase-2A1 (biphasic effect)", "result": "above 1000 nM"}, {"measurement": "EC50", "setting": "read-out: half maximal activation of protein phosphatase-2A1", "result": "~300", "unit": "nM"}]}
